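Where inhibition never reached the appropriate level, the endpoint shown equals the highest concentration tested. Otherwise, values were interpolated linearly from a five-concentration, 48-hour dose response in 96-well plates. GI50 is the concentration that inhibits growth by half.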 The source made the active and inactive calls. No stated cut-off is given here; in the data, active = GI50 up to about 1.1 µM and inactive = higher.
Columns and labels:
Assay in all cases: NCI-60 cell line screen, 48 h
[1] = system: BT-549
[2] = system: DLD-1
[3] = system: EKVX
[4] = system: HCC 2998
[5] = system: HL-60
[6] = system: HT-29
[7] = system: Hs-578T
[8] = system: LOX IMVI
[9] = system: MDA-MB-231
[10] = system: MDA-MB-435
[11] = system: NCI-H226
[12] = system: NCI-H460
[13] = system: OVCAR-5
[14] = system: RPMI-8226
[15] = system: SF-268
[16] = system: SK-MEL-2
[17] = system: SK-MEL-5
[18] = system: SNB-75
[19] = system: SW-620
[20] = system: TK-10

Structure (SMILES)	GI50 [1]	GI50 [2]	GI50 [3]	GI50 [4]	GI50 [5]	GI50 [6]	GI50 [7]	GI50 [8]	GI50 [9]	GI50 [10]	GI50 [11]	GI50 [12]	GI50 [13]	GI50 [14]	GI50 [15]	GI50 [16]	GI50 [17]	GI50 [18]	GI50 [19]	GI50 [20]
COC1C(O)C(C)OC(OC2C(Oc3cccc4c(O)c5c(=O)oc6ccc(C)c7c(=O)oc(c34)c5c67)OC(C)C(O)C2O)C1O (centres undefined)	1.9 µM (inactive)	1.26 µM (inactive)	1.34 µM (inactive)	2.16 µM (inactive)	2.38 µM (inactive)	2.63 µM (inactive)	2.38 µM (inactive)	1.14 µM (inactive)	1.67 µM (inactive)	2.07 µM (inactive)	1.35 µM (inactive)	2.26 µM (inactive)	4.56 µM (inactive)	1.39 µM (inactive)	0.904 µM (active)	1.03 µM (active)	1.59 µM (inactive)	2.49 µM (inactive)	0.843 µM (active)	3.1 µM (inactive)
O=[N+]([O-])c1ccc(C2CC(c3ccccc3Cl)=Nc3ccccc3S2)cc1 (centres undefined)	–	2.3 µM (inactive)	14.5 µM (inactive)	23.9 µM (inactive)	2.01 µM (inactive)	4.35 µM (inactive)	–	3.7 µM (inactive)	–	–	6.87 µM (inactive)	6.85 µM (inactive)	12.9 µM (inactive)	1.66 µM (inactive)	4.15 µM (inactive)	11.7 µM (inactive)	3.95 µM (inactive)	4.21 µM (inactive)	1.78 µM (inactive)	18.8 µM (inactive)
COC(=O)/C(=N\N)C(C(=O)C(=O)Nc1nnc(S)[nH]1)c1nc2ccc([N+](=O)[O-])cc2nc1O (centres undefined)	–	> 100 µM (inactive)	> 100 µM (inactive)	> 100 µM (inactive)	> 100 µM (inactive)	> 100 µM (inactive)	–	> 100 µM (inactive)	–	–	> 100 µM (inactive)	> 100 µM (inactive)	> 100 µM (inactive)	> 100 µM (inactive)	> 100 µM (inactive)	> 100 µM (inactive)	> 100 µM (inactive)	> 100 µM (inactive)	> 100 µM (inactive)	> 100 µM (inactive)
O=C(N/N=C(/c1nc2ccc([N+](=O)[O-])cc2[nH]c1=O)C(O)c1ccc([N+](=O)[O-])cc1)c1ccncc1 (centres undefined)	–	> 100 µM (inactive)	> 100 µM (inactive)	41.6 µM (inactive)	26.4 µM (inactive)	> 100 µM (inactive)	–	> 100 µM (inactive)	–	–	> 100 µM (inactive)	> 100 µM (inactive)	> 100 µM (inactive)	> 100 µM (inactive)	> 100 µM (inactive)	> 100 µM (inactive)	36.3 µM (inactive)	> 100 µM (inactive)	> 100 µM (inactive)	> 100 µM (inactive)
CC1(C(=O)O)CCC[C@@]2(C)C1CC[C@@]1(C)c3cocc3CCC21 (some centres undefined)	–	> 100 µM (inactive)	> 100 µM (inactive)	> 100 µM (inactive)	> 100 µM (inactive)	> 100 µM (inactive)	–	> 100 µM (inactive)	–	–	> 100 µM (inactive)	> 100 µM (inactive)	> 100 µM (inactive)	> 100 µM (inactive)	> 100 µM (inactive)	> 100 µM (inactive)	> 100 µM (inactive)	> 100 µM (inactive)	> 100 µM (inactive)	> 100 µM (inactive)
NC(CSC(c1ccccc1)(c1ccccc1)c1ccccc1)C(=O)O (centres undefined)	0.975 µM (active)	0.7 µM (active)	1.19 µM (inactive)	0.716 µM (active)	0.433 µM (active)	2.94 µM (inactive)	1.61 µM (inactive)	0.802 µM (active)	1.42 µM (inactive)	0.333 µM (active)	3.59 µM (inactive)	0.658 µM (active)	15.4 µM (inactive)	0.569 µM (active)	1.27 µM (inactive)	0.605 µM (active)	0.69 µM (active)	1.74 µM (inactive)	0.741 µM (active)	19.9 µM (inactive)
O=S(=O)(c1ccccc1)C1CN(Cc2ccccc2)CCN(Cc2ccccc2)C1	80.5 µM (inactive)	12.1 µM (inactive)	36.7 µM (inactive)	> 78 µM (inactive)	5.92 µM (inactive)	24.5 µM (inactive)	37.2 µM (inactive)	6.25 µM (inactive)	39.2 µM (inactive)	20.9 µM (inactive)	> 53.6 µM (inactive)	26.7 µM (inactive)	> 100 µM (inactive)	4.55 µM (inactive)	29.4 µM (inactive)	36.8 µM (inactive)	18.6 µM (inactive)	61.5 µM (inactive)	24 µM (inactive)	63.4 µM (inactive)

Reference: ChEMBL document CHEMBL1201862, “PubChem BioAssay data set” (2004)
